From the supplement of paper PMC9938120

Columns and labels:
Test in all cases: drug sensitivity score (DSS3, normalised partial AUC of % inhibition dose-response) (DSS (score)); higher = more sensitive (stronger inhibition of viability); extreme values may be limits of the assay
Settings in all cases: 72 h; library: FO5A; assay format: 2D, 384-well, CellTiter-Glo
[1] = test system: FMOC14 (patient-derived high-grade serous ovarian cancer cells)
How it was run: (§1)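 Patient-derived ovarian cancer cells (early passage, under 10) were dispensed onto 384-well flat clear-bottom plates pre-plated with compounds at five concentrations covering a 10,000-fold range. Plates were incubated 72 h at 37 °C, 5% CO2, and viability was read with CellTiter-Glo. Data were processed in Breeze. The drug sensitivity score (DSS3) is a partial area under the percent-inhibition dose-response curve, divided by the log of the upper asymptote; higher means more sensitive.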

[2] = test system: FMOC22 (patient-derived mucinous ovarian cancer cells)
How it was run: as §1

[3] = test system: FMOC25_2 (patient-derived low-grade serous ovarian cancer cells)
How it was run: as §1

[4] = test system: FMOC06 (patient-derived mucinous ovarian cancer cells)
How it was run: as §1

[5] = test system: FMOC09 (patient-derived high-grade serous ovarian cancer cells)
How it was run: as §1

[6] = test system: FMOC03 (patient-derived mucinous ovarian cancer cells)
How it was run: as §1

[7] = test system: FMOC02_3 (patient-derived low-grade serous ovarian cancer cells)
How it was run: as §1

[8] = test system: FMOC02_2 (patient-derived low-grade serous ovarian cancer cells)
How it was run: as §1

[9] = test system: FMOC24 (patient-derived high-grade serous ovarian cancer cells)
How it was run: as §1

| SMILES | drug sensitivity score [1] | drug sensitivity score [2] | drug sensitivity score [3] | drug sensitivity score [4] | drug sensitivity score [5] | drug sensitivity score [6] | drug sensitivity score [7] | drug sensitivity score [8] | drug sensitivity score [9] |
| --- | --- | --- | --- | --- | --- | --- | --- | --- | --- |
| CC(=O)c1cc2c(o1)C(=O)c1ccccc1C2=O [Napabucasin] | 18.2 | 18.5 | 15 | 14.7 | 19.2 | 18.2 | 17.9 | 18.3 | 17.5 |
| CNC(=O)c1cccc(-c2ccc3c(N4CCOC[C@@H]4C)nc(N4CCOC[C@@H]4C)nc3n2)c1 [Vistusertib] | 12.6 | 9.7 | 18.2 | 14.8 | 8.9 | 13.1 | 21.6 | 20.9 | 8.35 |
| CN1CCN(C2CCC(n3cc(-c4ccc(Oc5ccccc5)cc4)c4c(N)ncnc43)CC2)CC1 (stereo unspecified) | 7.3 | 5.5 | 9.9 | 8.3 | 19.1 | 9.1 | 20 | 19.8 | 9.1 |
| CN[C@@H](C)C(=O)N[C@H](C(=O)N1CCC[C@H]1c1nc(C(=O)c2ccc(F)cc2)cs1)C1CCCCC1 [NVP-LCL161] | 7.1 | 0.6 | 9.8 | 10.9 | 0 | 3.9 | 1.9 | 1.7 | 32.1 |
| C=CCn1c(=O)c2cnc(Nc3ccc(N4CCN(C)CC4)cc3)nc2n1-c1cccc(C(C)(C)O)n1 [AZD1775] | 14.6 | 6.9 | 15.2 | 8.5 | 7.9 | 6.1 | 17.5 | 10.8 | 8.15 |
| Cc1noc2c1-c1ccccc1C(c1ccc(Cl)cc1)=N[C@H]2CC(N)=O [CPI-0610] | 1.5 | 3.3 | 4 | 0.6 | 4.3 | 4.3 | 12.5 | 7.8 | 6.4 |
| CN(C)CC#Cc1ccc(OCCCc2sc(N3CCc4cccc(C(=O)Nc5nc6ccccc6s5)c4C3)nc2C(=O)O)c(F)c1 | 21.3 | 13.5 | 33.4 | 25.5 | 9.7 | 20.7 | 34 | 27.6 | 36.8 |
| C[C@@H]1COCCN1c1cc(C2([S@](C)(=N)=O)CC2)nc(-c2cc[nH]c3nccc2-3)n1 [AZD6738] | 10.7 | 7.4 | 12.5 | 6.9 | 7.7 | 5 | 11.1 | 7.8 | 8 |
| COc1cccc2c1C(=O)c1c(O)c3c(c(O)c1C2=O)C[C@@](O)(C(=O)CO)C[C@@H]3O[C@H]1C[C@H](N)[C@@H](O)[C@H](C)O1 [Epirubicin] | 3.8 | 5.7 | 8.2 | 4.2 | 5.2 | 4.3 | 7 | 3.9 | 4.8 |
| Nc1cc(F)ccc1NC(=O)c1ccc(CNC(=O)/C=C/c2cccnc2)cc1 [Tucidinostat] | 7.4 | 4.4 | 4.3 | 8.1 | 0.8 | 7.7 | 5.5 | 6.2 | 9 |
| CCS(=O)(=O)Nc1ccc(Oc2ccc(F)cc2F)c(-c2cn(C)c(=O)c3[nH]ccc23)c1 [Mivebresib] | 11.7 | 11.7 | 16.4 | 16.6 | 10.9 | 13.9 | 30.3 | 20.3 | 17.6 |
| C[C@H]1O[C@@H](O[C@H]2[C@@H](O)C[C@H](O[C@H]3[C@@H](O)C[C@H](O[C@H]4CC[C@@]5(C)[C@H](CC[C@@H]6[C@@H]5C[C@@H](O)[C@]5(C)[C@@H](C7=CC(=O)OC7)CC[C@]65O)C4)O[C@@H]3C)O[C@@H]2C)C[C@H](O)[C@@H]1O [Digoxin] | 10.3 | 9.7 | 18.3 | 10.7 | 14.3 | 9.6 | 14.4 | 11.1 | 17.1 |
| Nc1nc2cc(-c3ccc4ncc(C(=O)N5CCOCC5)n4c3)ccc2o1 [Serabelisib] | 0.1 | 2.1 | 6.7 | 3.5 | 1.3 | 3 | 7.2 | 6.6 | 0 |
| Cc1[nH]nc(C(F)(F)F)c1Cc1sc2c(c1C(=O)N1C[C@](C)(O)CO1)c(=O)n(C)c(=O)n2C(C)C [AZD3965] | 0 | 0 | 0 | 0 | 0 | 0 | 0.8 | 0 | 1.5 |
| Cc1sc2c(c1C)C(c1ccc(Cl)cc1)=N[C@@H](CC(=O)NCCCCNC(=O)COc1cccc3c1C(=O)N(C1CCC(=O)NC1=O)C3=O)c1nnc(C)n1-2 (stereo partly specified) [dBET1] | 8.9 | 3.8 | 0.3 | 12.9 | 4.5 | 4.5 | 8.6 | 8.8 | 0.2 |
| NC(=O)/C(=C/n1cnc(-c2cc(C(F)(F)F)cc(C(F)(F)F)c2)n1)c1cncnc1 [Eltanexor] | 12.4 | 16.5 | 23 | 23 | 13.3 | 12.5 | 24.5 | 16.2 | 23.7 |
| COc1cc2c(cc1OC(C)C)[C@H](c1ccc(Cl)cc1)N(c1ccc(N(C)C[C@H]3CC[C@H](N4CCN(C)C(=O)C4)CC3)cc1)C(=O)C2 [NVP-CGM097] | 6.3 | 6.9 | 13 | 5.5 | 5.9 | 5.9 | 18 | 12.2 | 8.6 |

| SMILES | drug sensitivity score [1] | drug sensitivity score [2] | drug sensitivity score [3] | drug sensitivity score [4] | drug sensitivity score [5] | drug sensitivity score [6] | drug sensitivity score [7] | drug sensitivity score [8] | drug sensitivity score [9] |
| --- | --- | --- | --- | --- | --- | --- | --- | --- | --- |
| CC(=O)c1cnc2ccc(-c3cc(Cl)c(O)c(Cl)c3)nc2c1N[C@H]1CC[C@H](CN(C)C)CC1 [OTS167] | 13 | 7.2 | 15.1 | 6.3 | 13.1 | 7.7 | 12.6 | 13.5 | 12.8 |
| O=C1CCc2c(Oc3ccc4c(c3)[C@@H]3[C@H](O4)[C@H]3c3nc4cc(C(F)(F)F)ccc4[nH]3)ccnc2N1 [BGB-283] | 1 | 3.7 | 5.8 | 4.8 | 4.9 | 4.5 | 6.8 | 7.4 | 0.9 |
| CCCCCCCCCCCCCCCCOP(=O)([O-])OCC[N+](C)(C)C [Miltefosine] | 8.7 | 10 | 5.1 | 9.1 | 8.4 | 5.6 | 6.9 | 5.5 | 9.8 |
| CC1(C)OCCn2c1nc1c(N3CCOCC3)nc(-c3cnc(N)nc3)nc12 [GDC-0084] | 9.2 | 7.4 | 16.2 | 10.9 | 9.6 | 10.5 | 18.5 | 18.1 | 7.5 |
| CCNCCS(=O)(=O)NC[C@@]1(c2ccccc2)SC(NC(=O)C(C)(C)C)=NN1C(=O)C(C)(C)C [Litronesib] | 0 | 9.2 | 13.5 | 0.7 | 6.8 | 7.9 | 11.6 | 4.9 | 0 |
| Cn1c(Nc2ccc(C(F)(F)F)cc2)nc2cc(Oc3ccnc(-c4ncc(C(F)(F)F)[nH]4)c3)ccc21 [NVP-RAF265] | 1.6 | 1.6 | 6.6 | 0.8 | 0 | 2 | 12.7 | 8 | 2 |
| C=C1C[C@@H]2CC[C@@]34C[C@H]5O[C@H]6[C@@H](O3)[C@H]3O[C@H](CC[C@@H]3O[C@H]6[C@H]5O4)CC(=O)C[C@@H]3[C@@H](OC)[C@@H](C[C@H](O)CN)O[C@H]3C[C@H]3O[C@@H](CC[C@@H]1O2)C[C@@H](C)C3=C [Eribulin] | 0 | 15.5 | 15.1 | 12.1 | 13.1 | 18 | 19.2 | 14.9 | 0.6 |
| Cc1sc2c(c1C)C(c1ccc(Cl)cc1)=N[C@@H](CC(=O)Nc1ccc(O)cc1)c1nnc(C)n1-2 [Birabresib] | 1.1 | 6.7 | 8.5 | 5.1 | 3.6 | 5.5 | 18.5 | 13.5 | 7.65 |
| Cc1c(-c2ccc(N3CCc4cccc(C(=O)Nc5nc6ccccc6s5)c4C3)nc2C(=O)O)cnn1CC12CC3CC(CC(C3)C1)C2 | 8.8 | 5.7 | 24 | 16.8 | 3.1 | 12.5 | 26.7 | 14.5 | 23 |
| Cc1sc2c(c1C)C(c1ccc(Cl)cc1)=N[C@@H](CC(=O)Nc1ccc(OCCOCCOCCOCCNc3cccc4c3C(=O)N(C3CCC(=O)NC3=O)C4=O)cc1)c1nnc(C)n1-2 (stereo partly specified) [ARV-825] | 11.4 | 3.6 | 17.1 | 14.9 | 8.3 | 4 | 13 | 7.1 | 6 |
| COc1cc2c(Nc3ccc(Cl)c(Cl)c3F)ncnc2cc1OC[C@@H]1C[C@@H]2CN(C)C[C@@H]2C1 [Tesevatinib] | 6.5 | 2 | 18.5 | 4.4 | 16.3 | 18.9 | 21 | 20.6 | 2.4 |
| CCOc1ccccc1-n1c(C(C)N2CCN(C(=O)COc3ccc(Cl)cc3)CC2)nc2ccccc2c1=O (stereo unspecified) [Erastin] | 14.6 | 0.2 | 4.7 | 8 | 2.2 | 6.1 | 3.9 | 0.3 | 0.1 |
| CC1(C)CC[C@]2(NC(=O)C(C)(F)F)CC[C@]3(C)[C@H](C(=O)C=C4[C@@]5(C)C=C(C#N)C(=O)C(C)(C)[C@@H]5CC[C@]43C)[C@@H]2C1 [Omaveloxolone] | 11.6 | 15.9 | 13.9 | 15.8 | 14 | 18.7 | 10 | 9.3 | 9.7 |
| CCNC(=O)C[C@@H]1N=C(c2ccc(Cl)cc2)c2cc(OC)ccc2-n2c(C)nnc21 [Molibresib] | 1.7 | 3.1 | 5.6 | 3.6 | 2.1 | 3.4 | 10.2 | 6.9 | 5 |
| CC(C)n1nc(-c2ccc3oc(N)nc3c2)c2c(N)ncnc21 [Sapanisertib] | 9.5 | 11.7 | 18.1 | 12.9 | 8.7 | 13.7 | 20.3 | 18.5 | 7.7 |
| CC(C)(C)c1cc(NC(=O)Nc2ccc(Oc3ccnc4[nH]c(=O)cnc34)cc2F)n(-c2ccccc2)n1 | 0.1 | 3.8 | 17.8 | 3.6 | 3 | 5.3 | 7.1 | 0.2 | 1.6 |
| CO[C@@H](C)Cn1c(=O)n(C)c2cnc3ccc(-c4cncc(C(C)(C)O)c4)cc3c21 | 8.3 | 9.1 | 15.7 | 11 | 7.4 | 9.2 | 17 | 15.3 | 7.6 |
